Results from patent US20240140957A1, “BRIDGED COMPOUNDS AS KRAS G12D INHIBITOR AND DEGRADER AND THE USE THEREOF” (BeiGene Switzerland GmbH, priority 2021, published 2024).

Assays:
KRAS G12D:SOS1 = KRAS G12D:SOS1 (Homo sapiens, UniProt P01116, G12D); test: KRAS G12D:SOS1 GDP TR-FRET assay; assay type: binding; conditions: GST-KRAS G12D 37.5 nM, GDP 10 μM, His-SOS1 18 nM
Procedure: (§1) KRAS:SOS1 GDP TR-FRET Assay
(§2) This assay was used to identify compounds which competitively interact with the binding of KRAS protein to SOS1 in the presence of GDP. […] All protein and reaction solutions were prepared in assay buffer containing DPBS pH7.5, 0.1% BSA, and 0.05% Tween 20. Purified GST-tagged WT KRAS or KRAS G12D protein (37.5 nM final assay concentration) and GDP (Sigma, 10 μM final assay concentration) mixture, a serially diluted compound (top final concentration is 50 μM or 10 uM, 3-fold serially diluted, 10 points) and His-tagged SOS1 protein (18 nM final assay concentration) were added into the assay plates (384 well microplate, black, Corning) sequentially. Plates are incubated at 24° C. for 1 hr. Following the incubation, Mab Anti-GST-Tb cryptate (Cisbio) and […] (Cisbio) were added and further incubated at 24° C. for another 1 hr. The TR-FRET signals (ex337 nm, em665 nm/620 nm) were read on BMG PHERAstar FSX instrument. The inhibition percentage of KRAS protein binding with SOS1 in presence of increasing concentrations of compounds was calculated based on the ratio of fluorescence at 665 nm to that at 620 nm. The IC50 value of each compound was calculated from fitting the data to the four-parameter logistic model by Dotmatics.

WT KRAS:SOS1 = WT KRAS:SOS1 (Homo sapiens, UniProt P01116); test: KRAS WT:SOS1 GDP TR-FRET assay; assay type: binding; conditions: GST-WT KRAS 37.5 nM, GDP 10 μM, His-SOS1 18 nM
Procedure: as §1, §2

[1] = system: pERK1/2 (THR202/TYR204) in AsPC-1 cells; test: pERK Assay (HTRF) in AsPC-1 cells; assay type: cell-based; conditions: Homo sapiens, ASPC1, 2 h compound treatment
Procedure: AsPC-1 cell line was used in this study. […] 30000 cells per well were seeded into a 96-well plate and incubated overnight. […] After 2 h compound treatment, cells were lysed, and the pERK1/2 (THR202/TYR204) level in the cell lysates was detected by HTRF kit (Cisbio). In brief, a total of 16 μL of cell lysate from each well of a 96-well plate was transferred to a 384-well white assay plate. Lysate from each well was incubated with 2 μL of Eu3+-cryptate (donor) labeled anti-phospho-ERK1/2 and 2 μL of D2 (acceptor) labeled anti-phospho-ERK1/2 antibodies (Cisbio) overnight in dark at room temperature. When donor and acceptor are in close proximity, excitation of the donor with laser triggers a Fluorescence Resonance Energy Transfer (FRET) towards the acceptor, which in turn fluoresces at 655 nm wavelength. FRET signals were measured using a PHERAstar FSX reader (BMG Labtech).

WT KRAS:SOS1, sequence (P01116 1-188 isoform P01116-2): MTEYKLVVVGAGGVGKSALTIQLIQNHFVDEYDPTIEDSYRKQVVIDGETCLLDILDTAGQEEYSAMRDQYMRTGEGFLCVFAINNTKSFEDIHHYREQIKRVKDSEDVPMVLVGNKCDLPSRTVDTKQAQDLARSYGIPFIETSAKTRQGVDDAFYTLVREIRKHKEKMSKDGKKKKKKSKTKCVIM
KRAS G12D:SOS1, sequence (P01116 1-188 isoform P01116-2 G12D): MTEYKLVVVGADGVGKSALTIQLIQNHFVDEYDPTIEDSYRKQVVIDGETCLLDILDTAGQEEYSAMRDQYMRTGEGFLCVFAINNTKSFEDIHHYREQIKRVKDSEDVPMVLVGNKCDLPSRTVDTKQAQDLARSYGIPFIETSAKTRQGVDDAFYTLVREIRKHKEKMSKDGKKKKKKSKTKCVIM

## C[C@@H](CN1CCC(F)(F)CC1)Oc1nc(N2C3CCC2CNC3)c2cc(Cl)c(-c3ccc(F)c4sc(N)nc34)c(F)c2n1 [Example E19, 4-(4-(3,8-diazabicyclo[3.2.1]octan-8-yl)-6-chloro-2-(((S)-1-(4,4-difluoropiperidin-1-yl)propan-2-yl)oxy)-8-fluoroquinazolin-7-yl)-7-fluorobenzo[d]thiazol-2-amine]
KRAS G12D:SOS1
  IC50: 10 nM
WT KRAS:SOS1
  IC50: 566 nM
[1]
  IC50: 3410 nM

## C[C@@H](CN1CCC(F)(F)C1)Oc1nc(N2CC3CCC(C2)N3)c2cc(Cl)c(-c3ccc(F)c4sc(N)nc34)c(F)c2n1 [Example E20, 4-(4-(3,8-diazabicyclo[3.2.1]octan-3-yl)-6-chloro-2-(((S)-1-(3,3-difluoropyrrolidin-1-yl)propan-2-yl)oxy)-8-fluoroquinazolin-7-yl)-7-fluorobenzo[d]thiazol-2-amine]
KRAS G12D:SOS1
  IC50: 25 nM
WT KRAS:SOS1
  IC50: > 10000 nM
[1]
  IC50: 7260 nM

## CC(CN1CCCCC1)Oc1nc(N2CC3COCC(C2)N3)c2cc(Cl)c(-c3ccc(F)c4sc(N)nc34)c(F)c2n1 (stereo not drawn) [Example E21, 4-(4-(3-oxa-7,9-diazabicyclo[3.3.1]nonan-7-yl)-6-chloro-8-fluoro-2-((1-(piperidin-1-yl)propan-2-yl)oxy)quinazolin-7-yl)-7-fluorobenzo[d]thiazol-2-amine]
KRAS G12D:SOS1
  IC50: 44 nM
WT KRAS:SOS1
  IC50: 338 nM
[1]
  IC50: > 10000 nM

## C[C@@H](CN1CCS(=O)(=O)CC1)Oc1nc(N2CC3CCC(C2)N3)c2cc(Cl)c(-c3ccc(F)c4sc(N)nc34)c(F)c2n1 [Example E22, 4-((2S)-2-((7-(2-amino-7-fluorobenzo[d]thiazol-4-yl)-4-(3,8-diazabicyclo[3.2.1]octan-3-yl)-6-chloro-8-fluoroquinazolin-2-yl)oxy)propyl)thiomorpholine 1,1-dioxide]
KRAS G12D:SOS1
  IC50: 27 nM
WT KRAS:SOS1
  IC50: > 3330 nM
[1]
  IC50: 7700 nM

## C[C@@H](CN1CCC1)Oc1nc(N2CC3CCC(C2)N3)c2cc(Cl)c(-c3ccc(F)c4sc(N)nc34)c(F)c2n1 [Example E23, 4-(2-(((S)-1-(azetidin-1-yl)propan-2-yl)oxy)-4-(3,8-diazabicyclo[3.2.1]octan-3-yl)-6-chloro-8-fluoroquinazolin-7-yl)-7-fluorobenzo[d]thiazol-2-amine]
KRAS G12D:SOS1
  IC50: 3.9 nM
WT KRAS:SOS1
  IC50: 146 nM
[1]
  IC50: 5220 nM

## C[C@@H](CN1CCC(F)C1)Oc1nc(N2CC3CCC(C2)N3)c2cc(Cl)c(-c3ccc(F)c4sc(N)nc34)c(F)c2n1 (stereo partly drawn) [Example E24, 4-(4-(3,8-diazabicyclo[3.2.1]octan-3-yl)-6-chloro-8-fluoro-2-(((2S)-1-(3-fluoropyrrolidin-1-yl)propan-2-yl)oxy)quinazolin-7-yl)-7-fluorobenzo[d]thiazol-2-amine]
KRAS G12D:SOS1
  IC50: 2.8 nM
WT KRAS:SOS1
  IC50: 210 nM
[1]
  IC50: 1270 nM

## C[C@@H](CN1CCC(F)CC1)Oc1nc(N2CC3CCC(C2)N3)c2cc(Cl)c(-c3ccc(F)c4sc(N)nc34)c(F)c2n1 [Example E25]
KRAS G12D:SOS1
  IC50: 2.2 nM
WT KRAS:SOS1
  IC50: 88 nM
[1]
  IC50: 860 nM

## C[C@@H](CN1CCC(C#N)CC1)Oc1nc(N2CC3CCC(C2)N3)c2cc(Cl)c(-c3ccc(F)c4sc(N)nc34)c(F)c2n1 [Example E26, 1-((2S)-2-((7-(2-amino-7-fluorobenzo[d]thiazol-4-yl)-4-(3,8-diazabicyclo[3.2.1]octan-3-yl)-6-chloro-8-fluoroquinazolin-2-yl)oxy)propyl)piperidine-4-carbonitrile]
KRAS G12D:SOS1
  IC50: 2.9 nM
WT KRAS:SOS1
  IC50: 140 nM
[1]
  IC50: 819 nM

## CC1CCCCN1C[C@H](C)Oc1nc(N2CC3CCC(C2)N3)c2cc(Cl)c(-c3ccc(F)c4sc(N)nc34)c(F)c2n1 (stereo partly drawn) [Example E27, 4-(4-(3,8-diazabicyclo[3.2.1]octan-3-yl)-6-chloro-8-fluoro-2-(((2S)-1-(2-methylpiperidin-1-yl)propan-2-yl)oxy)quinazolin-7-yl)-7-fluorobenzo[d]thiazol-2-amine]
KRAS G12D:SOS1
  IC50: 2.9 nM
WT KRAS:SOS1
  IC50: 57 nM
[1]
  IC50: 518 nM

## CN1C[C@H](O)C[C@H]1COc1nc(N2CC3CCC(C2)N3)c2cc(Cl)c(-c3ccc(F)c4sc(N)nc34)c(F)c2n1 [Example E28, (3R,5S)-5-(((7-(2-amino-7-fluorobenzo[d]thiazol-4-yl)-4-(3,8-diazabicyclo[3.2.1]octan-3-yl)-6-chloro-8-fluoroquinazolin-2-yl)oxy)methyl)-1-methylpyrrolidin-3-ol]
KRAS G12D:SOS1
  IC50: 3 nM
WT KRAS:SOS1
  IC50: 30 nM
[1]
  IC50: 8860 nM

## C[C@@H](CN1CCOCC1)Oc1nc(N2CC3CCC(C2)N3)c2cc(Cl)c(-c3ccc(F)c4sc(N)nc34)c(F)c2n1 [Example E29, 4-(4-(3,8-diazabicyclo[3.2.1]octan-3-yl)-6-chloro-8-fluoro-2-(((S)-1-morpholinopropan-2-yl)oxy)quinazolin-7-yl)-7-fluorobenzo[d]thiazol-2-amine]
KRAS G12D:SOS1
  IC50: 5.9 nM
WT KRAS:SOS1
  IC50: 453 nM
[1]
  IC50: 903 nM

## C[C@@H](CN1CCC(F)CC1)Oc1nc(N2C3CCC2CNC3)c2cc(Cl)c(-c3ccc(F)c4sc(N)nc34)c(F)c2n1 [Example E30, 4-(4-(3,8-diazabicyclo[3.2.1]octan-8-yl)-6-chloro-8-fluoro-2-(((S)-1-(4-fluoropiperidin-1-yl)propan-2-yl)oxy)quinazolin-7-yl)-7-fluorobenzo[d]thiazol-2-amine]
KRAS G12D:SOS1
  IC50: 12 nM
WT KRAS:SOS1
  IC50: 173 nM
[1]
  IC50: 1810 nM

## C[C@@H](CN1CC(F)C1)Oc1nc(N2CC3CCC(C2)N3)c2cc(Cl)c(-c3ccc(F)c4sc(N)nc34)c(F)c2n1 [Example E31, 4-(4-(3,8-diazabicyclo[3.2.1]octan-3-yl)-6-chloro-8-fluoro-2-(((S)-1-(3-fluoroazetidin-1-yl)propan-2-yl)oxy)quinazolin-7-yl)-7-fluorobenzo[d]thiazol-2-amine]
KRAS G12D:SOS1
  IC50: 11 nM
WT KRAS:SOS1
  IC50: 1080 nM
[1]
  IC50: 1900 nM

## C[C@@H](CN1CC=CCC1)Oc1nc(N2CC3CCC(C2)N3)c2cc(Cl)c(-c3ccc(F)c4sc(N)nc34)c(F)c2n1 [Example E33, 4-(4-(3,8-diazabicyclo[3.2.1]octan-3-yl)-6-chloro-2-(((S)-1-(3,6-dihydropyridin-1(2H)-yl)propan-2-yl)oxy)-8-fluoroquinazolin-7-yl)-7-fluorobenzo[d]thiazol-2-amine]
KRAS G12D:SOS1
  IC50: 6.1 nM
WT KRAS:SOS1
  IC50: 143 nM
[1]
  IC50: 890 nM

## C[C@@H](CN1CCN(C)CC1)Oc1nc(N2CC3CCC(C2)N3)c2cc(Cl)c(-c3ccc(F)c4sc(N)nc34)c(F)c2n1 [Example E34, 4-(4-(3,8-diazabicyclo[3.2.1]octan-3-yl)-6-chloro-8-fluoro-2-(((S)-1-(4-methylpiperazin-1-yl)propan-2-yl)oxy)quinazolin-7-yl)-7-fluorobenzo[d]thiazol-2-amine]
KRAS G12D:SOS1
  IC50: 15 nM
WT KRAS:SOS1
  IC50: 1350 nM
[1]
  IC50: > 10000 nM

## Nc1nc2c(-c3c(Cl)cc4c(N5C6CCC5CNC6)nc(OC5CC6CCCCN6C5)nc4c3F)ccc(F)c2s1 (stereo not drawn) [Example E39, 4-(4-(3,8-diazabicyclo[3.2.1]octan-8-yl)-6-chloro-8-fluoro-2-((octahydroindolizin-2-yl)oxy)quinazolin-7-yl)-7-fluorobenzo[d]thiazol-2-amine]
KRAS G12D:SOS1
  IC50: 54 nM
WT KRAS:SOS1
  IC50: 8160 nM
[1]
  IC50: > 10000 nM
